For assay [1], the target named is T1, O-GlcNAc transferase (OGT) (Homo sapiens, UniProt O15294).
T1 sequence (O15294 2-1046): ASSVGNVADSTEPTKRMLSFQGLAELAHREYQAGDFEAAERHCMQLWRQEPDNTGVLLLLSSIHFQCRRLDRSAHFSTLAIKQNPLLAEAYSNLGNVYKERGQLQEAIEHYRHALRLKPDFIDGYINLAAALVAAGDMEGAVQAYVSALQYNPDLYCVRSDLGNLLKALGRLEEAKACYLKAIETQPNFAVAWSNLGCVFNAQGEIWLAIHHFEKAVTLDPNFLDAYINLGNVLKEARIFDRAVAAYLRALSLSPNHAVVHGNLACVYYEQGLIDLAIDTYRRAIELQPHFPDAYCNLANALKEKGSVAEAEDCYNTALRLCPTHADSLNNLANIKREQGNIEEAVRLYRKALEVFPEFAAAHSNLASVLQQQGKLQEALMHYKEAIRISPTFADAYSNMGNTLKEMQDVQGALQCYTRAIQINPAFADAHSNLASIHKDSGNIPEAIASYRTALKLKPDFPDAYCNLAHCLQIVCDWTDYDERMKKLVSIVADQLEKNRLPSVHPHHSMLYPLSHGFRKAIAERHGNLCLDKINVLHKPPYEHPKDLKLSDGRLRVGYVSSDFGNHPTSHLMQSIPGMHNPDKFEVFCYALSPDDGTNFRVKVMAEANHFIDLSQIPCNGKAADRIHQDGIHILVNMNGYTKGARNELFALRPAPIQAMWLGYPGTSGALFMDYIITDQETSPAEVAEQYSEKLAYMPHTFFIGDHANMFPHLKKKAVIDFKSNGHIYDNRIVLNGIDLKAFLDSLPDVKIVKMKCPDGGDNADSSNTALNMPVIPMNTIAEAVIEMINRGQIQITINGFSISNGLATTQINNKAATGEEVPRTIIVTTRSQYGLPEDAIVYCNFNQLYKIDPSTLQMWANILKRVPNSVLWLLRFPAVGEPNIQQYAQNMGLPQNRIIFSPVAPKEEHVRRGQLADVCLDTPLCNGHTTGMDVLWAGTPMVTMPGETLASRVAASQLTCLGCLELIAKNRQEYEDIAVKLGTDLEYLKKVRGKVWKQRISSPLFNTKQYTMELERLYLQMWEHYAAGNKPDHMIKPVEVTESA
Kind of assay: SPR steady-state affinity on immobilized OGT; also in-gel covalent labelling of purified OGT, competed by OSMI-4. It counts as binding.

Assay [2] has as its target T1, O-GlcNAc transferase (OGT). Kind of assay: SPR, confirmed by MST; also in-gel covalent labelling of purified OGT, competed by OSMI-4. It counts as binding. (In SPR one partner is held on a chip, and binding of the other changes the refractive index at the surface.)

In general, Kd refers to a measure of binding affinity in units of concentration. Lower therefore signals a tighter complex. Regarding `C#CCCCCC(=O)N(CC#N)S(=O)(=O)c1cc2ccc(=O)[nH]c2cc1Cl` [7a], the Kd in assay [1] came out at 2 µM.

In assay [2], `C#CCCCCC(=O)N(CC#N)S(=O)(=O)c1ccc2[nH]c(=O)ccc2c1` [8a] showed a Kd of 28.3 µM.
